In patent publication EP4755891A1, “ARF1 INHIBITOR AND USE THEREOF” (AOBIO PHARMACEUTICAL CO., LTD., priority 2023, dated 2025):
“Also recorded” adds a separate entry of the source.

Tests used:
NF-κB signaling pathway = assay: Activation of NF-κB signaling pathway (phosphorylated P65, Western blot); type: cell-based, Murine; conditions: CT26 cells; FIG. 6
Experimental: In this example, Compounds 3 and 9 synthesized in the above preparation examples were tested for their ability to activate the NF-κB signaling pathway, as indicated by an increase of phosphorylated P65. GCA, a known Arf1 inhibitor, was used as a positive control.
In CT26 cells treated with DMSO, GCA, Compound 3, or Compound 9, the relevant protein levels were evaluated by Western blot analysis as previously described (Wang et al., 2020).

Mouse neuroblastoma N2A = assay: Test for Golgi morphology abnormalities (GM130 immunofluorescence); type: cell-based; conditions: N2A cells; FIG. 4
Experimental: GCA, a known Arf1 inhibitor, was used as a positive control.
Mouse neuroblastoma N2A (N2a, ATCC®CCL-131™) was cultured, treated, and subjected to immunofluorescence staining as previously reported (Wang et al., 2021).

CT26 colon cancer [1] = assay: Inhibition of CT26 colon cancer in BALB/c mice (Example 48, 10 mg/kg); type: in vivo; conditions: gavaged daily, two consecutive weeks, FIG. 11
Experimental: In this example, the inhibitory effects of Compounds 28, 30, 31, 33, 34, and DU102 synthesized in the above preparation examples on the growth of colon cancer were tested.
(§1) Murine CT26 cells were inoculated into the left abdomen of 6-week-old male mice at a dose of 5×10^5 cells per mouse. Approximately 7 days later, the mice were randomly divided into two groups: the control group or the compound treatment group. The mice were gavaged daily with either the vehicle control (ddH2O or 5% DMSO in corn oil) or 10 mg/kg of Compounds 28, 30, 31, 33, 34, and DU102 (dissolved in the corresponding vehicle) for two consecutive weeks. Tumor diameters were measured every 2-3 days using a digital caliper (ULINE, Cat^# H-7352), and the tumor volume was calculated using the formula ½ × longitudinal diameter (length) × maximum transverse diameter (width). When the maximum tumor volume reached 3000 mm^3, the mice were euthanized.

Arf1 = target: T1, Arf1 (Homo sapiens, UniProt P84077); assay: Inhibition test of Arf1 activation (Active Arf1 pull-down and detection kit, Western blot); type: cell-based; conditions: lysate of liver cancer Huh-7 cells; GTP-bound Arf1; FIG. 3
T1 construct: endogenous in cells; host or cells: Huh-7 liver cancer cells (lysate)
T1 sequence (P84077 whole entry): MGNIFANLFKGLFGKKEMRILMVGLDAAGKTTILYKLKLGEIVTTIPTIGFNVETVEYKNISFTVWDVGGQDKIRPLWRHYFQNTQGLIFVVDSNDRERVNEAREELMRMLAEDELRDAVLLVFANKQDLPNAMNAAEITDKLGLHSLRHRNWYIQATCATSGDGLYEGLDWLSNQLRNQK
Experimental: In this example, the inhibitory ability of Compounds 3 and 9 synthesized in the above preparation examples on Arf1 activation was tested. The Pierce Active Arf1 Pull-Down and Detection Kit (Thermo Scientific, Cat#16121) was used with the lysate of liver cancer Huh-7 cells to detect the activated Arf1. It is a complete kit that selectively enriches and detects GTP-bound Arf1 GTPase through specific protein interactions with the GGA3 protein-binding domain.

[2] = test system: Drosophila orthotopic tumors; assay: Inhibition of orthotopic tumor growth in Drosophila; type: in vivo; conditions: 5 µM in food, 4 days; Ras^V12-PMML clones; FIG. 7
Experimental: In this example, the inhibitory effects of Compounds 3 and 9 synthesized in the above preparation examples on the growth of Drosophila orthotopic tumors were tested. As previously described, renal stem cell tumor clusters were induced by expressing Ras in Drosophila renal stem cell (Ras^V12-PMML) clones (Singh et al., 2016). The Drosophila carrying Ras^V12-PMML clones were cultured with normal food at room temperature for 4 days to allow tumor growth. They were then switched to food containing the indicated drugs for an additional 4 days, followed by feeding the Drosophila carrying Ras^V12-PMML with normal food containing DMSO or 5 µM Compound 3 or Compound 9. In the indicated groups, the number of esg>GFP + tumor cells per 5×10^3 µm^2 area was quantified to characterize tumor size.

CCL5 = assay: Upregulation of chemokine CCL5 expression (quantitative RT-PCR); type: cell-based, Murine; conditions: CT26 cells; FIG. 5
Experimental: In this example, the upregulation of chemokine CCL5 expression induced by the treatment of Compounds 3 and 9 synthesized in the above preparation examples was tested. Quantitative RT-PCR was used to measure the expression level of chemokine CCL5 in CT26 cells treated with DMSO, Compound 3, or Compound 9.

CT26 colon cancer [3] = assay: Inhibition of CT26 colon cancer in BALB/c mice (Example 47, 5 mg/kg); type: in vivo; conditions: gavaged daily, two consecutive weeks, FIG. 9 and FIG. 10
Experimental: In this example, the inhibitory effects of Compounds 9, 11-3, 25, 26, 27, and DU102 on colon cancer growth were tested.
as §1, with “group. They” for “group. The mice”, “or 5” for “or 10”, “Compounds 9, 11-3, 25, 26, or 27” for “Compounds 28, 30, 31, 33, 34, and DU102”, “reached 2000” for “reached 3000”

Fc1cc(F)c2c(c1)[C@H]1C=CC[C@H]1C(c1cccnc1)N2 (stereo partly shown) [GCA, reference compound]
phosphorylation level of P65 (NF-κB signaling pathway): increase the phosphorylation level of P65
Golgi morphology (Golgi apparatus defects, distribution of Golgi marker GM130) (Mouse neuroblastoma N2A): effectively induce morphological changes in the Golgi apparatus

CC(=O)N1CCc2c(sc3ncnc(Nc4ccc5nc(C)[nH]c5c4)c23)C1 [Compound 30, 1-(4-((2-Methyl-1H-benzo[d]imidazol-6-yl)amino)-5,8-dihydropyrido[4',3':4,5]thieno[2,3-d]pyrimidin-7(6H)-yl)ethanone]
inhibition of CT26 colon cancer (CT26 colon cancer [1]): effectively inhibit CT26 colon cancer

N-(1H-Indol-5-yl)-methylthieno[2,3-d]pyrimidin-4-amine [Compound 3]
phosphorylation level of P65 (NF-κB signaling pathway): increase the phosphorylation level of P65
Golgi morphology (Golgi apparatus defects, distribution of Golgi marker GM130) (Mouse neuroblastoma N2A): induce Golgi apparatus defects; also recorded: effectively induce morphological changes in the Golgi apparatus
inhibition of Arf1 activation (Arf1): effectively inhibit the activation of Arf1; also recorded: effective inhibitors
orthotopic tumor growth in Drosophila [2]: effectively inhibit orthotopic tumor growth
expression of the chemokine CCL5 (CCL5): effectively promote the expression

Cc1nc2ccc(Nc3ncnc4sc5c(c34)CCNC5)cc2[nH]1 [Compound 28, N-(2-Methyl-1H-benzo[d]imidazol-6-yl)-5,6,7,8-tetrahydropyrido[4',3':4,5]thieno[2,3-d]pyrimidin-4-amine]
inhibition of CT26 colon cancer (CT26 colon cancer [1]): effectively inhibit CT26 colon cancer

Cc1nc2cc(/C=N/Nc3ncnc4sc5c(c34)CCCCCC5)ccc2[nH]1 [Compound 33, (E)-4-(2-((2-Methyl-1H-benzo[d]imidazol-5-yl)methylene)hydrazinyl)-5,6,7,8,9,10-hexahydrocycloocta[4,5]thieno[2,3-d]pyrimidine]
inhibition of CT26 colon cancer (CT26 colon cancer [1]): effectively inhibit CT26 colon cancer

Cc1nc2cc(Nc3ncnc4sc5c(c34)CCCCCC5)ccc2[nH]1 [Compound 31, N-(2-Methyl-1H-benzo[d]imidazol-5-yl)-5,6,7,8,9,10-hexahydrocycloocta[4,5]thieno[2,3-d]pyrimidin-4-amine]
inhibition of CT26 colon cancer (CT26 colon cancer [1]): effectively inhibit CT26 colon cancer

Cn1cnc2cc(Nc3ncnc4sc5c(c34)CCN(C(=O)c3ccc(Cl)s3)C5)ccc21 [Compound 26, (5-Chlorothiophen-2-yl)(4-((1-methyl-1H-benzo[d]imidazol-5-yl)amino)-5,8-dihydropyrido[4',3':4,5]thieno[2,3-d]pyrimidin-7(6H)-yl)methanone]
inhibition of CT26 colon cancer (CT26 colon cancer [3]): effectively inhibit CT26 colon cancer

Cc1nc2ccc(Nc3ncnc4scc(C)c34)cc2[nH]1 [Compound 25, 5-Methyl-N-(2-methyl-1H-benzo[d]imidazol-6-yl)thieno[2,3-d]pyrimidin-4-amine]
inhibition of CT26 colon cancer (CT26 colon cancer [3]): effectively inhibit CT26 colon cancer
